According to patent US12508270B2, “Treatment of behavioral impairment in developmental and epileptic encephalopathy” (Harmony Biosciences Management, Inc., priority 2019, dated 2025):

Test system: child and adolescent epilepsy patients with developmental and epileptic encephalopathies (DEE)
Assay: Qualitative caregiver feedback at Week 26
Format: in vivo, human
Details: transdermal CBD
Description: Qualitative assessment of improvement, worsening, or no change for the patient and family, such as but not limited to, daily activities, school attendance and alertness. In the examples, clinicians were asked to capture qualitative caregiver feedback at Week 26 with the following questions asked: (1) “Has anything improved for [patient name] and your family since [patient name] has been using the gel?”; (2) “Has anything got worse since for [patient name] and your family since [patient name] has been using the gel?”; and (3) “Let me just ask about a few specific things: Daily activities e.g. school attendance? If so how? Alertness? If so how?”.
Parents/caregivers were instructed to capture seizure frequency and type, and skin irritation scores, within daily diaries. Parents/caregivers also completed: • (1) The University of Washington Caregiver Stress Scale at Day 1, Week 14, and Week 26. • (2) Epilepsy and Learning Disabilities Quality of Life scale (ELDQOL—modified) at Day 1, Week 14 and Week 26. • (3) Sleep Disturbance Scale for Children (SDSC) at Day 1, Week 14 and Week 26. • (4) Vineland Adaptive Behavior Scale-3 (VABS-3) at Day 1 and Week 26. • (5) Parents/caregivers also completed a daily Likert-type “good day/bad day” questionnaire. • (6) Qualitative Caregiver Feedback at Week 26. Objectives […]

C=C(C)C1CCC(C)=CC1c1c(O)cc(CCCCC)cc1O (stereo not shown) [CBD, 2-[3-methyl-6-(1-methylethenyl)-2-cyclohexen-1-yl]-5-pentyl-1,3-benzenediol]
qualitative assessments by caregivers: improved many behavioral problems
